“Also recorded” adds a separate entry of the source. Like-named read-outs stand apart in the source and are kept apart here.
Tests used:
paddy rice [1] = assay: Seedling establishment of coated paddy seeds in submerged soil containers (Examples 4-1 to 4-4b, FIGS. 11, 14-19c); type: in vivo; settings: germinated seeds, 30° C.
Experimental: The germinated paddy seeds were soaked for one minute in a tenfold diluted solution of a commercially available laundry starch (manufactured by Rocket Soap Co., Ltd.; My Laundry Starch) containing approximately a little less than 10% by weight of polyvinyl alcohol, centrifuged at 1000 rpm for removal of the extra solution, and, immediately after that, lightly covered with different amounts of ammonium molybdophosphate, whereby seeds with different amounts of ammonium molybdophosphate were prepared.
(§1) It should also be noted that in each of FIGS. 14 through 15b, the horizontal axis represents the number of moles (mmol) of molybdenum or tungsten that adhered per gram of dry seed. In each of FIGS. 14 through 15b, the dots correspond to the numbers of moles of 0, 0.02, 0.05, 0.1, 0.2, 0.5, 1, and 2 mmol, starting from the left.
as §1, with “should” for “should also”, “16” for “14”, “18,” for “15b,”, “molybdenum” for “molybdenum or tungsten”
It should be noted that in FIG. 19a, the horizontal axis represents the number of moles (mmol) of molybdenum that adhered per gram of dry seed. In FIG. 19a, the dots correspond to the numbers of moles of 0, 0.02, 0.05, 0.1, 0.2, 0.5, 1, and 2 mmol, starting from the left.
The resulting seeds were allowed to spend time in a sufficiently wet condition so that the iron rusted, and then allowed to further spend overnight. […] Six containers were allotted for each condition, and the proportion of seedling establishment and the standard error were examined. It should be noted that in FIG. 19b, the horizontal axis represents the number of moles (mmol) of molybdenum that adhered per gram of dry seed. In FIG. 19b, the dots correspond to the numbers of moles of 0, 0.02, 0.05, 0.1, 0.2, 0.5, 1, and 2 mmol, starting from the left.
Six containers were allotted for each condition, and the proportion of seedling establishment and the standard error were examined. It should be noted that in FIG. 19c, the horizontal axis represents the actual weight ratios of 25 wt % calcium peroxide that adhered with respect to the weight of dry seed. In FIG. 19c, the dots correspond to the actual weight ratios of 25 wt % calcium peroxide of 0, 0.01, 0.02, 0.05, 0.1, 0.2, 0.5, and 1 time, starting from the left.

paddy rice [2] = assay: Seedling establishment of coated paddy seeds planted in a paddy field (Example 4-5, FIG. 22); type: in vivo; settings: dry seeds coated with clay plus 0.1 mmol/g molybdenum; kept submerged, about one month after seeding; versus WITHOUT MATERIAL and oxygen generating agent (Cal); trihydrate
Experimental: Dry paddy seeds (branded as Hinohikari) were prepared.
Separately, dry seeds (WITHOUT MATERIAL) coated solely with clay containing no molybdenum were also prepared. Furthermore, dry seeds (Cal) coated with an oxygen generating agent (Calper Powder 16, Hodogaya UPL Co., Ltd.) the same weight per dry seeds were also prepared. Calper Powder 16 is an oxygen generating agent composed mainly of calcium peroxide.
These dry seeds were planted in puddled soil in a paddy field in Chikugo City, Fukuoka Prefecture, by using a simultaneous puddling and planting point sowing machine. By preparing the seeds as described above and planting them by using a point sowing machine, the amount of seeding per unit area of the paddy field can be substantially uniformed. It should be noted that prior to soil puddling, 4 g/m^2 of ammonium sulfate as nitrogen and potassium sulfate containing potassium equivalent to 8 g/m^2 as potassium oxide had been applied to the paddy field. After seeding, the seeds were kept submerged without draining the water.

soybean [3] = assay: Seedling establishment of soybean seeds submerged for two days (Example 6a-1, FIG. 20e); type: in vivo; settings: 0.01 mmol to 0.5 mmol molybdenum per gram of dry seed, 25° C., versus untreated seeds
Experimental: Soil was prepared in the same manner as in Example 6-1. Next, soybean seeds (branded as Fukuyutaka) not subjected to treatment such as soaking in advance were soaked for one minute in a tenfold diluted solution of a commercially available laundry starch (manufactured by Rocket Soap Co., Ltd.; My Laundry Starch) containing approximately a little less than 10% by weight of polyvinyl alcohol. Then, the seeds were spin-dried for thirty seconds in a commercially available washing machine for removal of the extra water. […] These seeds were buried so that the upper edge of each seed was at the same height as the soil surface. In an artificially-lit (amount of light 0.4 mmol/m^2/s, lit for twelve hours per day) room at 25° C., water was added immediately after seeding so that the surface water was 15 mm high. After two days, the surface water was sucked up with a pipette for removal. Six containers were allotted for each condition, and the proportion of seedling establishment (proportion of individual plants that survived) was measured two weeks after seeding. It should be noted that in FIG. 20e, the horizontal axis represents the number of moles (mmol) of molybdenum that adhered per gram of dry seed. In FIG. 20e, the dots correspond to the numbers of moles of 0 (UNTREATED), 0.01, 0.02, 0.05, 0.1, 0.2, and 0.5 mmol, starting from the left. […]

[4] = in water, powder, trihydrate, cited from earlier work
paddy seeds = assay: Possibility of growth of paddy seeds in tank farming without soil (Example 3); settings: in vivo
Experimental: The decay-inhibiting effect of molybdenum-containing substances in tank farming without soil was examined.
The possibility of growth and the inhibition of decay were determined in the same manner as above.

soybean [5] = assay: Seedling establishment of soybean seeds with ammonium molybdophosphate (Example 5, FIG. 12); type: in vivo; settings: 20° C. and 30° C., after two weeks
Experimental: As in Example 4-1, ammonium sulfate in an equivalent amount of 10 g/m^2 in terms of nitrogen and potassium chloride equivalent to 5 g/m^2 of potassium as potassium oxide were added as a solution to paddy humid soil, on the condition that the weight of dry soil is 100 kg/m^2. The soil was placed into each container (in the shape of a cylinder approximately 7 cm in diameter) in an amount equivalent to 100 g of dry soil, shaken for approximately one hour, and left at rest for two days at 4° C. It should be noted, however, that the soil-to-liquid ratio was 0.7. On this condition, the soil surface became substantially as high as the water surface. Barley seeds (branded as Nishinochikara) and soybean seeds (branded as Fukuyutaka) not subjected to treatment such as soaking in advance were soaked in water for one minute. Immediately after the extra water was removed, the seeds were put with a […] molybdenum amount of ammonium molybdophosphate (purchased from Wako Pure Chemical Industries, Ltd.) per gram of dry seed. The seeds were then half-buried in the samples of soil. […] Six containers were allotted for each condition, and the proportion of seedling establishment (proportion of individual plants that survived) was measured after two weeks.

For “Triammonium 12-moblydo(VI)phosphate trihydrate [Ammonium molybdophosphate]”, the “molybdenum or tungsten amount leading to improvements in proportion of seedling establishment” value (paddy rice [1]; polyvinyl alcohol adhesive, compared with 0 mmol/g) was ≥ 0.02 mmol per gram of dry seeds, the “proportion of seedling establishment” value (paddy rice [1]; molybdenum amount of 0.5 mmol/g or more, FIG. 11) was about 80% and the seedling establishment (paddy rice [2]) was “obvious improvements in seedling establishment; also recorded: most remarkable improving effect on seedling establishment”. For the same substance, the “proportion of seedling establishment” value (soybean [3]) was “improvements in proportion of seedling establishment”, the Water solubility ([4]; listed as ammonium molybdophosphate) was “slightly soluble” and the Water solubility [4] was “Slightly soluble (has a percentage of solubility of 10% by weight or lower with respect to water)”. The Possibility of growth, Amount of molybdenum or tungsten added to seed (paddy seeds) was over 1 mmol/g and the “proportion of seedling establishment” value (soybean [5]) was “improvements in proportion of seedling establishment”.

— patent publication US20120283096A1, “AGENT FOR IMPROVING PLANT GROWTH, SEEDS, AND METHOD FOR IMPROVING PLANT GROWTH” (Incorporated Administrative Agency National Agricu lture …, priority 2010, published 2012)
